According to paper PMC3997074, “Pharmacokinetic and Biodistribution Assessment of a Near Infrared-Labeled PSMA-Specific Small Molecule in Tumor-Bearing Mice” (Prostate Cancer, 2014):

Columns and labels:
[1] = biological target: T1, prostate-specific membrane antigen (PSMA) (Homo sapiens, UniProt Q04609); test: competition of YC-27 […]CW binding to LNCaP cells; assay type: cell-based
T1 construct: gene FOLH1

[2] = biological target: T1, prostate-specific membrane antigen (PSMA); test: NIR fluorescence saturation binding to PSMA-positive […]1 cells (PSMA-negative PC3 M-LN4 control; LNCaP apparent Kd […]); assay type: cell-based

T1 sequence (Q04609 whole entry): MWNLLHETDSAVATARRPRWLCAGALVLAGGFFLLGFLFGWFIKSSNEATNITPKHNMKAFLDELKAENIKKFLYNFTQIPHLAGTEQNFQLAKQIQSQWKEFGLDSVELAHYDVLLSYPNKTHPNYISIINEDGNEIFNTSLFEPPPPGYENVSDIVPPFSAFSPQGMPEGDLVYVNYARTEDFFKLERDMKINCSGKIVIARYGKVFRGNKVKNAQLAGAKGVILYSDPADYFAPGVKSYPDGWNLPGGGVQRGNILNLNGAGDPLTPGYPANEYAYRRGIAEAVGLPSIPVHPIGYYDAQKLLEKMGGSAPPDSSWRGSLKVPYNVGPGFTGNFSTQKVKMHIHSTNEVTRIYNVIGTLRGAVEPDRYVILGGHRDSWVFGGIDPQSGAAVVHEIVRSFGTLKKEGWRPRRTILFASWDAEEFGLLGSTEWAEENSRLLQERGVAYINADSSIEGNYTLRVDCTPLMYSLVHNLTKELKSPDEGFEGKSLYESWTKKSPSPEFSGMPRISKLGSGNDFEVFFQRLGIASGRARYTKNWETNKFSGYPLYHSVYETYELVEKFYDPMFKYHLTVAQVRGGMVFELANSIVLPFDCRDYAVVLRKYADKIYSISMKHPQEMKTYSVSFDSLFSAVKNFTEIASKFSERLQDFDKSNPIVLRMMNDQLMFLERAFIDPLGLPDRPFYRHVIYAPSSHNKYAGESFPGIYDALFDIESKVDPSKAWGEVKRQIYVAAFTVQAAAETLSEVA

Row | Substance | IC50 [1] [nM] | Kd [2] [nM]
1 | unlabeled YC-27 | 1700 | –
2 | YC-27 800CW | – | 8
